Results as given in a melting point compilation (Tetko et al.; mined from patent text by program, amines drawn as free bases though some values may be those of a salt).

SMILES | melting point
CCOC(=O)C(=O)c1cc(Cl)c(C)cc1F | 84 to 85 °C
CCOCC1=C(C(=O)OCC)C(c2ccccc2)C(C(=O)OCC)=C(C)N1 (stereo not given) | 112 °C
CC(=O)Nc1nc(-c2ccc(NS(C)(=O)=O)c(Oc3ccc(F)cc3F)c2)cs1 | 192 to 193 °C
CCOCc1nc2c(N)nc3cccnc3c2n1CCCON=C1CCN(C(C)=O)CC1 | 162 to 163 °C
Cn1cc(CS(C)(=O)=O)c(=O)c2ccc(Cl)cc21 | 215 to 216 °C
COc1cc2c(c3c1OC(C)(C)C3)C(c1cccc(NC(=O)C(C)(C)CCl)c1)=NC(C)(C)C2 | 189 to 191 °C
C[C@@H]1O[C@](C#Cc2ccoc2)(C(F)(F)F)c2cc(Cl)ccc2NC1=O (relative stereo) | 214 to 215 °C
Cc1cc2c(cc1C(O)c1c(C(F)(F)F)ccnc1Cl)OCO2 (stereo not given) | 127 to 130 °C
CCCc1nn(C)c2c(NCc3ccc(OC)c(Cl)c3)nc(CCC(=O)O)nc12 | 178 °C
O=C(CCCCC1SCC2NC(=O)NC21)NCCOCCOCCN1C(=O)C=C(Br)C1=O (stereo not given) | 95 to 98 °C
CCC(=CC=C(C#N)C#N)NCCO | 88 to 90 °C
CC(CCCc1ccc(F)cc1)c1cc(NS(C)(=O)=O)c2c(c1)OC(C)(C)c1ccncc1-2 (stereo not given) | 208 to 209 °C
COc1cc(Br)c(N)c(C(=O)/C=C/c2ccc(OC)c(F)c2)c1 | 123 to 125 °C
CCOC1=C([N+](=O)[O-])CN(C(C)C)C1=O | 47 °C
CCc1cc2oc(=O)c([N+](=O)[O-])c(O)c2cc1CC | 115 to 117 °C
CCOC(=O)C1Cc2cc3c(C)noc3c(Cl)c2O1 (stereo not given) | 123 to 124 °C
COc1ccc(C2=NN(c3ccc(Br)cc3)C(=O)C(C)(C)C2)cc1OC | 123 to 124 °C
COC(=O)COc1cc(Cl)c(C(=O)CBr)cc1Cl | 89 to 90 °C
CC(C)(C)OC(=O)Nc1ccc(C#Cc2ccccc2F)cc1[N+](=O)[O-] | 140 to 142 °C
CON=Cc1cc(Cl)cc(Cl)c1 | 53 °C
CN(CCOc1ccc(CC(Oc2ccc(Cl)cc2)C(=O)O)cc1)c1nc2ccccc2o1 (stereo not given) | 164 to 165 °C
CCOC(=O)c1cccc2[nH]c3c(C)ccc(C)c3c12 | 149 °C
CCc1[nH]n(C2CCCC2)c2nc(=S)[nH]c(=O)c1-2 | 248 to 250 °C
CCCCN(CCCC)C(=O)Nc1ccccc1 | 82 °C
COc1cc(-c2cc(=O)c3ccc(OCC4CO4)cc3o2)cc(OC)c1OC (stereo not given) | 187 to 188 °C

SMILES | melting point
O=C(O)CCc1ccc(-c2ccccc2)cc1 | 143 to 149 °C
COc1ccc(-c2nc(N3CCN(C)CC3)c3c(C)c(C#N)sc3n2)cc1 | > 250 °C
CN(C(=O)C(C)(C)c1cc(C(F)(F)F)cc(C(F)(F)F)c1)c1ccc(Cl)cc1C(=O)c1ccccc1 | 89 to 91 °C
CC(C)(C)OC(=O)N1CCC(N2Cc3cc(Br)ccc3C2=O)CC1 | 179 to 180 °C
Cc1ccc2[nH]c(=S)c(C(=O)c3ccc([N+](=O)[O-])cc3)c(O)c2c1 | 247 °C
COc1ccccc1CN1CCC(=O)C(C2c3ccccc3C=Cc3ccccc32)C1 (stereo not given) | 113 to 114 °C
CN(C)C(=O)COC(=O)c1cc(-c2ccccc2)c(=O)n2c1-c1ccccc1C2 | 177 to 179 °C
CC1C(=O)N(c2ccc(Cc3ccccc3)cc2)C(=S)N1c1ccccc1 (stereo not given) | 123 to 125 °C
CCCC(CC(=O)NC(=O)OC(C)(C)C)Nc1ccc(C)cc1 (stereo not given) | 63 to 64 °C
CC(C)c1ccc2c(c1)CCN2C(=O)Nc1cccnc1 | 163 to 165 °C
CCCCn1c(C)c(Br)c(=O)c(C(=O)Nc2c(CC)cccc2CC)c1C | 158 to 160 °C
O=[N+]([O-])c1ccc(Oc2cccc3c(Oc4ccc([N+](=O)[O-])c(O)c4)cccc23)cc1O | 238 to 241 °C
O=C(O)c1cn(-c2ccc(F)cc2)c(-c2ccc(Cl)cc2)cc1=O | 199 to 204 °C
NC(=O)c1c(OCc2ccccc2)ccc2ccccc12 | 153 to 154 °C
CCCCC(=N)NC(=O)Nc1ccccc1[N+](=O)[O-] | 130 to 132 °C
COc1ccc(SC2CC(=O)N2CC(=O)O)cc1 (stereo not given) | 78 to 79 °C
COc1ccc(CCNC(=O)C(F)(F)F)c2ccc(=O)[nH]c12 | 181 to 184 °C
O=C(O)Cc1ccc(NC(=O)Nc2ccccc2C(F)(F)F)cc1 | 224 to 225 °C
CCOP(=O)(OCC)c1nc(Nc2ccccc2)nc(N2CCCC2)n1 | 150 to 151 °C
Cc1nnc(-c2ccc3occ(-c4cnn(Cc5ccccc5C#N)c4)c3c2)o1 | 192 to 193 °C
Cc1cnc(CS(=O)c2cc3ccccc3[nH]2)cc1N1CCCCC1 (stereo not given) | 178 °C
CCCCC1(C(F)(F)F)NC(=O)Nc2ccc(F)cc21 (racemic) | 198 °C
O=S(=O)(C(/C=C/c1ccc(F)cc1)c1c(F)c(F)c(F)c(F)c1F)C(/C=C/c1ccc(F)cc1)c1c(F)c(F)c(F)c(F)c1F (stereo not given) | 133 to 136 °C
CCCCCCCCCCCC(=O)NC(CCCCNN=C=S)C(=O)O (stereo not given) | 37 to 39 °C
COC(=O)c1ccc(-c2nc(O)c(C)s2)cc1 | 219 to 220 °C

SMILES | melting point
CCOC(=O)c1cc2cccc(N(CC)S(=O)(=O)c3cccs3)c2[nH]1 | 124 to 125 °C
CCCNC(=O)C(CCC(=O)NCCCOC(C)=O)NC(=O)OCc1ccccc1 (stereo not given) | 98 to 102 °C
CCN(CC)CC(O)c1cccc2c(C)c(C)oc12 (stereo not given) | 138 to 142 °C
COC(=O)C=C(Nc1ccc(CC(=O)OC)cc1)C(F)(F)F | 50 to 51 °C
O=C(OC1C(=O)NC1c1ccccc1)c1ccccc1 (stereo not given) | 118 to 119 °C
COc1cc(Nc2nccc(-c3ccc(NCCCN)nc3)n2)cc(OC)c1OC | 152 to 153 °C
Cc1ccccc1-c1ccc(C(=O)O)cc1C | 140 to 143 °C
O=C1CCc2cccc(Oc3ccccc3Cl)c2O1 | 123 to 125 °C
COC(=O)C[C@H](O)CC(=O)C=Cc1c(-c2ccc(F)cc2)c(-c2ccccc2)c(C(=O)Nc2cccc(S(N)(=O)=O)c2)n1C(C)C | 89 to 91 °C
O=C(O)CCCCCCCc1nc(-c2ccccc2)c(-c2ccccc2)o1 | 82 to 83 °C
CC(C)(CS(=O)(=O)c1ccc(Oc2ccc(OC(F)(F)F)cc2)cc1)N(O)C=O | 128 to 129 °C
Cc1ccc(C=C(C#N)S(=O)(=O)c2ccccc2)cc1 | 145 to 147 °C
CN(C(=O)CBr)c1cccc(-c2ccnc3c(C(=O)c4ccccc4)cnn23)c1 | 175 to 177 °C
COc1ccccc1-c1nc(=O)c2ccccc2s1 | 144 °C
CCn1c(=O)sc2cc([N+](=O)[O-])ccc21 | 200 to 203 °C
Cc1nnnn1/C=C\SC(c1ccccc1)(c1ccccc1)c1ccccc1 | 208 to 210 °C
CCOC(=O)C1=C(C)Nc2ccnc(OC(C)C)c2C1c1ccccn1 (stereo not given) | 191 to 193 °C
Cc1cc(N)cnc1Oc1ccc(Cl)c(C(F)(F)F)c1 | 92 to 94 °C
N#C/C=C/c1cccc(Cl)c1 | 26 to 28 °C
COc1ccc(C=CC2=NN(c3ccc([N+](=O)[O-])cc3)C(c3ccc(OC)c(O)c3)C2)cc1O (stereo not given) | 215 to 217 °C
COC(=O)C1Cc2c([nH]c3ccccc23)C(c2ccc(O)c(OC)c2)N1 (stereo not given) | 195 °C
O=C(O)c1cc(-c2ccccc2)cnc1Cl | 239 to 240 °C
OC(Cc1nnccc1-c1c(-c2ccccc2)nn2ccccc12)C(Cl)(Cl)Cl (stereo not given) | 206 to 207 °C
CCOC(=O)c1[nH]c2cc(F)ccc2c1NCCC(=O)c1ccccc1 | 265 to 270 °C
CCOC(=O)c1ccc(-c2cc(C(=O)OCC)c(N)[nH]2)cc1 | 150 to 151 °C

SMILES | melting point
Cc1cn(S(=O)(=O)c2ccc(=O)[nH]n2)c2ccccc12 | > 220 °C
COC(=O)c1ccc2c(c1)Sc1cc(F)ccc1C=C2 | 132 to 135 °C
CC(C)NCC(O)COc1ccccc1-c1ccc(=S)[nH]n1 (stereo not given) | 166 to 168 °C
COc1cc2ncnc(N3CCN(C(=S)NC4CCOC4=O)CC3)c2cc1OC (stereo not given) | 147 to 148 °C
CN(C)c1cccc(N(C)C)c1NC(=O)N(Cc1ccc(O)cc1)CC1(c2ccccn2)CCCCC1 | 162 to 166 °C
Cc1c(-c2ccncc2)[nH]c(-c2ccncc2)c1S(C)(=O)=O | 232 to 234 °C
CCc1cc(-c2ccccc2OC)n2nc(Nc3ccc(N4CCN(C)CC4)cc3)ncc12 | 154 to 156 °C
CCC(C)(C)c1ccc(OCCCNC(=O)c2cc(OCCS(=O)(=O)CC)c3ccccc3c2O)c(C(C)(C)CC)c1 | 155 to 157 °C
c1ccc(-c2ccnc(Nc3cccc(-n4ccnc4)c3)n2)nc1 | 210 to 211 °C
CC1OC(c2cc(-n3c(=O)cc(C(F)(F)F)n(C)c3=O)ccc2Cl)OC1C (stereo not given) | 149 to 151 °C
O=C(N[C@@H](CO)c1nc2cc(Br)ccc2[nH]1)c1ccc(C(=O)N2CC=CC2)c(Cl)c1 | 124 to 126 °C
CNC(=O)Oc1cc(C)c(NC(=O)COC)cc1C | 168 to 170 °C
Cc1c(C)c2ccc(OCCCN3CCC(NC(=O)c4ccc(N)cc4)CC3)cc2oc1=O | 242 to 245 °C
Nc1nc(N)c(-c2cc(Cl)cc(Cl)c2Cl)c(C(Cl)(Cl)Cl)n1 | 226 to 227 °C
CCCOc1ccccc1CN1N=C(CCC)C(=CNc2ccccc2CC)C1=O | 75.2 °C
Cc1nc(-c2ccc(C(F)(F)F)cc2)sc1CN(C)c1ccc(OCC(=O)O)c(I)c1 | 172 to 173 °C
COC(CN(C)CC1CSC2=C(O1)c1ccccc1C(=O)C2=O)OC (stereo not given) | 80 to 82 °C
CC(=O)Nc1cc(C(=O)CCCCCl)cc2c1OCC2 | 150 to 152 °C
COc1ccc(S(=O)(=O)NCCc2ccc(C(=O)O)cc2)cc1 | 177 to 178 °C
N#CNC(=NC1CCN(Cc2ccccc2)CC1)NC1CCc2ccccc21 (stereo not given) | 159 to 160 °C
CCn1cc(C(=O)O)c(=O)cc1-c1ccccc1 | 166 to 167 °C
CC(C)c1nc2cc(NC(=O)c3c(C(=O)N4CCCC4)cnn3C)ccn2n1 | 141 to 143 °C
COCCc1nc2c(N)nc3ccccc3c2n1CCOCCS(C)(=O)=O | 142 to 144 °C
O=C(NCc1ccc2c(c1)-c1[nH]nc(-c3ccsc3)c1C2)c1ccncc1 | 278 to 281 °C
O=C(O)CCCOc1ccc(N2CCN(c3ccncc3)CC2)cc1 | 305 to 306 °C
